Experimental data taken from patent US12611405B2, “Agent that increases the expression of the BCL2-associated agonist of cell death for the treatment of cancer” (LDN Pharma Limited, priority 2017, dated 2026).

Legend:
Assay type in all cases: cell-based
[1] = test system: BAD expression in HCT116 colon cancer cells; test: Level of expression of BAD after 48 h culture, immunoblotting
Protocol: In order to determine the effect of 6-β-naltrexol or naltrexone on the level of expression of BAD, pAKT, p21, cyclin B1 and CDK1 HCT116 colon cancer cells were seeded onto 6-well plates at a density of 2×10^5 cell/well, and allowed to adhere overnight. Cells were then cultured in the presence of naltrexone or 6-β-naltrexol at concentrations of 10 nM or 10 μM for a further 48 h. Cells were then harvested and processed for measurements of BAD, or pAKT, p21, cyclin B1 and CDK1 using standard immunoblotting techniques.

A549 cells = test: Two-phase priming with 6-β-naltrexol then GEM or OXP, cell number and viability by trypan blue counting
Protocol: (§1) The impact of combining 6-β-naltrexol with other chemotherapy agents was tested by culturing cells according to a treatment schedule that involved two phases of treatment. The first phase involved priming with 10 nM 6-β-naltrexol or 10 μM 6-β-naltrexol for 48 h, before treatment with another drug for a further 48 h. A549 and HCT116 cells were seeded into 6-well plates at a density of 2×10^5 cells/well and left to adhere overnight. Media was removed after 48 h, and cells were rinsed gently with drug-free medium. Fresh culture medium that contained gemcitabine (GEM) or oxaliplatin (OXP) was then added to the cells. The concentrations of the chemotherapy agents used were approximately ¼ IC50, as established previously [Liu W M, Fowler D W, Smith P, Dalgleish A G. Pre-treatment with chemotherapy can enhance the antigenicity and immunogenicity of tumours by promoting adaptive immune responses. Br J Cancer. 2010 Jan. 5; 102(1):115-23. doi: 10.1038/sj.bjc.6605465.]. Cells were then left for a further 48 h before assessment of cell number of viability by cell counting using trypan blue dye as a way of discriminating live and dead cells. Cytostasis was indicated by a reduction in cell number and no associated reduction in cell viability.

HCT116 cells = test: as above
Protocol: as §1

[2] = test system: BAD expression in breast cancer cell line MCF-7; test: BAD protein expression by western blotting; conditions: MCF-7, different concentrations of 6BN (FIG. 3)
MCF-7 cells = test: 6BN given concomitantly with gemcitabine or oxaliplatin, cell number and viability by trypan blue dye exclusion; conditions: 10 uM 6BN concomitantly with gemcitabine (0.5 uM) or oxaliplatin (0.5 uM), 48 h
Protocol: The effect of combining 6BN with the chemotherapeutic agents gemcitabine or oxaliplatin was tested by culturing MCF-7 cells with 6BN (10 nM or 10 uM) concomitantly with gemcitabine (0.5 uM) or oxaliplatin (0.5 uM). Cell number and viability was then assessed after 48 h using trypan blue dye exclusion as a means to discriminate live/dead cells.

[3] = 6-β-naltrexol priming 48 h in an amount raising BAD by at least 10%, then GEM or OXP at approx. ¼ IC50 for 48 h

Structure (SMILES)	effect on the level of expression of BAD ([1]; 10 nM)	increase in the level of expression of BAD ([1]; 10 μM)	cytotoxicity of 6-β-naltrexol alone (A549 cells; 10 nM or 10 μM 6BN, no chemotherapeutic agent (FIG. 2c))	cytotoxic effect of both chemotherapeutic agents (GEM, OXP) after priming (A549 cells; [3])	cytotoxicity of 6-β-naltrexol alone (HCT116 cells; 10 nM or 10 μM 6BN, no chemotherapeutic agent (FIG. 2d))	cytotoxic effect of both chemotherapeutic agents (GEM, OXP) after priming (HCT116 cells; [3])	expression of the pro-apoptotic protein BAD [2]	effect on cell viability of the combination with chemotherapy (MCF-7 cells)	effect on the level of expression of BAD ([1]; 10 μM)
Oc1ccc2c3c1OC1[C@H](O)CC[C@@]4(O)[C@@H](C2)N(CC2CC2)CC[C@]314 (stereo partly drawn) [6-β-naltrexol, 17-(Cyclopropylmethyl)-4,5-epoxymorphinan-3,6 beta,14-triol]	negligible effect	more than 10%	absence of any independent increase in cytotoxicity	increased	absence of any independent increase in cytotoxicity	increased	dose dependent increase	greatest effect on cell viability	–
O=C1CC[C@@]2(O)[C@H]3Cc4ccc(O)c5c4[C@@]2(CCN3CC2CC2)[C@H]1O5 [naltrexone, reference compound]	negligible effect	–	–	–	–	–	–	–	negligible effect
